Consider two molecules from patent US20180010188A1, “METHOD FOR DETECTING NONSENSE-MEDIATED RNA DECAY” (The Regents of the University of California, priority 2016, published 2018).

For experiment [1], the system named is NMD and non-NMD isoforms of Srsf11, Ptbp2, Tra2b, Hnrnpl and Psd-95 (cellular NMD activity). The experiment is described as follows: RT-qPCR of endogenous NMD and non-NMD isoforms to monitor cellular NMD activity. Format: cell-based, mouse. The source says: In our method, we measure the individual abundance of NMD-sensitive isoforms and that of their non-NMD counterparts via quantitative real-time PCR (qPCR). The NMD isoforms are first examined for differential expression between a treatment and a control condition. An increase in a NMD isoform may be due to NMD inhibition, transcriptional activation or a change in alternative splicing favoring the NMD isoform. These three scenarios can be distinguished by examining the expression of the non-NMD counterparts. Genuine NMD regulation, transcriptional activation and alternative splicing regulation would lead to no change, upregulation and down-regulation of the NMD-insensitive isoforms, respectively (FIG. 6A).
One technical difficulty of our method is designing RT-qPCR primers specific to the cassette exon-skipping isoform, whose entire sequence is contained in the inclusion isoform. To specifically detect an inclusion isoform, we designed a primer entirely annealing to the cassette exon (exon B in FIG. 1A). For the exclusion isoform, junction primers annealing to the exon-skipping junction appear to be the only choices. This can be either a reverse primer (FIG. 1A) with its 5′ portion matching the downstream constitutive exon (exon C) and its 3′ portion matching the upstream constitutive exon (exon A) or a forward primer (not shown) with its 5′ and 3′ portions matching the upstream and downstream exons, respectively. The challenge is herein illustrated with reverse primers but also applies to forward primers. Many exon-skipping junction primers are able to amplify the inclusion isoforms (FIGS. 7A-D). The longer the 3′ portion of the junction primer annealing to the upstream constitutive exon, the easier the primer amplifies the inclusion transcripts (FIG. 7B). Some exon-skipping junction primers with 3′ portions as short as six nucleotides, as we've observed, can still anneal to and detect the inclusion isoform at 55-60° C., albeit at a lower efficiency than its detection of the exclusion isoform. On the other hand, a longer 5′ portion and a shorter 3′ portion increase the possibility of the primer annealing to the exon B-exon C junction because of the sequence similarity around 5′ splice sites (FIGS. 7C-D). We therefore had to identify NMD-associated cassette exons containing a 3′ end unlike that of its upstream exon. We then screened multiple exon-skipping junction primers for one that amplified only the exclusion isoform and not the inclusion isoform. All primer pairs were tested and confirmed for their specificity, RT-qPCR efficiency and linear dynamic ranges (FIG. 10). Finally, two stably expressed housekeeping genes, Gapdh and Sdha, were used as internal controls for normalization by geometric averaging (Vandesompele et al., 2002. Genome Biol 3: RESEARCH0034).
Because our method can be used on its own can to infer NMD regulation with a low false positive rate, one of its applications is unbiased screening for changes in cellular NMD activity. We screened a small panel of widely used pharmacological inhibitors for their effects on NMD. The expression of both the NMD and non-NMD isoforms of Ptbp2, Srsf11, Tra2b, Hnrnpl and Psd-95 were simultaneously measured before and after drug treatment. When the levels of all of the NMD isoforms were altered by a chemical in the same direction, the expression of the NMD and non-NMD isoforms under the treatment and control conditions was then subjected to ANOVA analysis to determine differential regulation of the two isoforms. We were interested in drugs that affected the NMD isoforms across the board and more strongly than the non-NMD counterparts. With this criterion, we identified thapsigargin as having potent activity in blocking cellular NMD.
Neuro-2a (N2a) cells were maintained in N2a complete media consisting of L-glutamine-free Dulbecco's modified Eagle's medium (DMEM), 10% FBS and 1× GlutaMAX at 37° C. […]
On the technique in general: Quantitative PCR measures a nucleic acid by following its amplification.

Experiment [2] concerns immediate early genes c-fos, c-Jun and Pip92. As to the kind of experiment: RT-qPCR of immediate early genes. Format: cell-based, mouse. From the text: We then examined whether an increase in intracellular Ca^2+ is sufficient to inhibit NMD. We applied a wide dose range of ouabain, a cardiac glycoside used by Nickless et al., and measured the abundance of both NMD and non-NMD isoforms at various time-points. […] To further test whether increased intracellular Ca^2+ was sufficient to inhibit NMD, we treated the cells with ionomycin, a Ca^2+ ionophore, as another method of raising the cytoplasmic Ca^2+ concentration.
Neuro-2a (N2a) cells were maintained in N2a complete media consisting of L-glutamine-free Dulbecco's modified Eagle's medium (DMEM), 10% FBS and 1× GlutaMAX at 37° C. Thapsigargin (VWR, cat. no. 89161-410), ionomycin (Fisher Scientific, cat. no. AG-CN2-0416-M001) and ouabain octahydrate (Fisher Scientific, cat. no. 80055-364) were dissolved in DMSO and stored at −80° C. For the application of these chemicals, 750,000 cells were plated on 35 mm BioLite TC plates and incubated with 2 ml of N2a complete media overnight before treatment with the drugs at the indicated concentrations. […]
Trizol (Life Technologies, cat. no. 15596-018) was directly added to the cells or mouse brain tissues to extract total RNA following the Trizol Reagent standard protocol. […] RNA concentrations were measured using a Nanodrop 2000c (Thermo Fisher). […] Relative expression (fold changes) was calculated using the ΔΔCt method. […]

Entries after “also recorded” stand apart in the source; their conditions may differ.

Take `C[C@H](CCC(=O)O)C[C@H](C)C[C@H](C)C(=O)/C=C(\O)[C@H](C)C[C@H](C)C/C=C/[C@@H](C)[C@@H](O)[C@@H](C)[C@@H](O)C[C@@H]1CC[C@@](C)([C@H]2CC[C@@](C)([C@@H](C)O)O2)O1` [ionomycin]: the “levels of the NMD isoforms” value in experiment [1] (1 to 100 μM) is “did not alter”. In addition, the “expression of immediately early genes c-Jun and Pip92” value in experiment [2] (ionomycin treatment) is “increased expression”.
As for `C[C@@H]1O[C@@H](O[C@H]2C[C@@H](O)[C@]3(CO)[C@H]4[C@H](O)C[C@]5(C)[C@@H](C6=CC(=O)OC6)CC[C@]5(O)[C@@H]4CC[C@]3(O)C2)[C@H](O)[C@H](O)[C@H]1O` [ouabain], in experiment [1] (200 or 400 μM), the “NMD isoforms at high concentration” value is listed as “not substantially enhanced”. In experiment [1] (wide dose range, various time-points, N2a cells), the “changes in cellular NMD activity” value was “only minimal changes; also recorded: did not unequivocally affect NMD activity”. The “immediate early genes c-fos and Pip92” value in experiment [2] (200 or 400 μM, N2a cells) is given as “clearly stimulated; also recorded: clearly induced”.
